# Patent US10653717B2, “Antibiotic compositions” (priority 2016, dated 2020)
# Read-outs that look alike come from different tables or passages of the source.
# Assays:
# [1] = tested on: KP-2: K. pneumonia subsp. pneumonia 0322#; assay: MIC of silver with antibiotics on clinical isolated MDR Gram-negative bacteria; format: cell-based, Klebsiella pneumonia; conditions: antibiotic 4 μM
# Procedure: (§1) There are five clinically most difficult-to-treat MDR Gram-negative pathogen species: Klebsiella pneumonia, Acinetobacter baumannii, Pseudomonas aeruginosa, Enterobacter cloacae and Escherichia coli. One strain from each species was isolated, and overnight cultures were diluted 1:1000 times in LB medium, and treated with serial concentrations of Ag^+ and antibiotics in combinations for 24 h (Table 10).
# (§2) Five clinical isolated MDR Gram-negative strains were grown until an OD600 nm of 0.4, and were diluted 1:1,000 into 100 μl LB medium in 96 micro-well plates. […] The cultures treated with the same serial dilutions of 100 μl ebselen and silver nitrate were used as the positive control.
# [2] = tested on: ECL-2: E. cloacae 2301#; assay: as above; format: cell-based, Enterobacter cloacae; conditions: antibiotic 4 μM
# Procedure: as §1, §2
# [3] = tested on: PA-1: Pseudomonas aeruginosa 1298#
# Procedure: (§3) There are five most difficult-to-treat MDR Gram-negative pathogen species in the clinic, which are also typical GSH-positive bacteria: Klebsiella pneumonia, Acinetobacter baumannii, Pseudomonas aeruginosa, Enterobacter cloacae and Escherichia coli. Two strains of each species were isolated, overnight cultures were diluted 1:1000 times in LB medium, and treated with Ag^+ with a serial concentration of ebselen in combination for 16 h. […] Among these five species, A. baumannii and E. cloacae are very readily formed drug-resistant strains, which are needed to be treated by or the fourth-generation cephalosporin in the clinic, including imipenem, cefepime, and cefotaxime, etc.
# (§4) Ten clinical isolated MDR Gram-negative (GSH-positive) strains were grown until an OD600 nm of 0.4 and were diluted 1:100 into 100 μl of LB medium in 96 micro-well plates. Serial dilutions of 100 μl ebselen and AgNO3 were added to the individual wells. […] The culture treated with 0.8% (v/v) DMSO was used as a control.
# [4] = tested on: PA-2: P. aeruginosa 0009#
# Procedure: as §3, §4
# [5] = tested on: ECO-2: E. coli 2219#
# Procedure: as §3, §4
# [6] = tested on: ECO-3: E. coli ZY-1
# Procedure: as §3, §4
# [7] = tested on: KP-1: Klebsiella pneumoniae subsp. pneumoniae 13#
# Procedure: as §3, §4
# [8] = tested on: ECO-1: Escherichia coli 1139#
# Procedure: as §3, §4
# [9] = tested on: KP-2: K. pneumoniae subsp. pneumoniae 0322#
# Procedure: as §3, §4
# [10] = tested on: ECO-4: MG1655 (ATCC 700926)
# Procedure: as §3, §4
# [11] = tested on: AB-1: Acinetobacter baumannii H#
# Procedure: as §3, §4
# [12] = molecular target: reduced E. coli Trx1 (Escherichia coli, UniProt P0AA25); conditions: excitation 280 nm
# Chain of reduced E. coli Trx1 (P0AA25 whole entry): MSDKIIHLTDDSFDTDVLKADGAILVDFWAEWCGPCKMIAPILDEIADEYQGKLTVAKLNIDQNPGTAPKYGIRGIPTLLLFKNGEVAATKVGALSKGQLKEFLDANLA
# Procedure: Pure recombinant 100 nM TrxR, and 5 μM Trx mixture were incubated with AgNO3 solution in the presence of 200 μM NADPH, and then their activities were detected by DTNB reduction assay. FIG. 4B is a fluorescent spectra of a complex between reduced E. coli 10 μM Trx1 with AgNO3. Reduced 10 μM E. coli Trx1 protein was incubated with a serial concentration of AgNO3 solution and the fluorescent spectra was detected with an excitation wavelength at 280 nm. Oxidized Trx1 (Trx-S2) was used as a control. […] After the treatment described in (B), Trx activity was assayed by a DTNB method in the presence of E. coli Trx1. […] Silver-inhibited E. coli Trx1 was passed through a desalting column to remove small molecules and then Trx activity was measured. E. coli Trx1 without the inhibition was used as a control.
# Fluorescent Spectra of reduced E. coli Trx with Silver were recorded at 10 μM in a PerkinElmer Enspire multilabel recorder using an excitation at 280 nm.
structure (smiles),measurement,setting,value
"O=c1c2ccccc2[se]n1-c1ccccc1 [ebselen, 2-phenyl-1,2-benzisoselenazol-3(2H)-one]",MIC of silver in the presence of different antibiotics,[1],40 µM
same,MIC of silver in the presence of different antibiotics,[2],10 µM
"O=[N+]([O-])[O-].[Ag+] [silver, silver nitrate]",MIC of silver in the presence of ebselen,[3]; Ebselen 0 μM,80 µM
same,MIC of silver in the presence of ebselen,[3]; Ebselen 1 μM,80 µM
same,MIC of silver in the presence of ebselen,[3]; Ebselen 2 μM,20 µM
same,MIC of silver in the presence of ebselen,[3]; Ebselen 4 μM,20 µM
same,MIC of silver in the presence of ebselen,[4]; Ebselen 0 μM,80 µM
same,MIC of silver in the presence of ebselen,[4]; Ebselen 1 μM,80 µM
same,MIC of silver in the presence of ebselen,[4]; Ebselen 2 μM,40 µM
same,MIC of silver in the presence of ebselen,[4]; Ebselen 4 μM,20 µM
same,MIC of silver in the presence of ebselen,[5]; Ebselen 0 μM,80 µM
same,MIC of silver in the presence of ebselen,[5]; Ebselen 1 μM,80 µM
same,MIC of silver in the presence of ebselen,[5]; Ebselen 2 μM,40 µM
same,MIC of silver in the presence of ebselen,[5]; Ebselen 4 μM,10 µM
same,MIC of silver in the presence of ebselen,[6]; Ebselen 0 μM,40 µM
same,MIC of silver in the presence of ebselen,[6]; Ebselen 1 μM,40 µM
same,MIC of silver in the presence of ebselen,[6]; Ebselen 2 μM,20 µM
same,MIC of silver in the presence of ebselen,[6]; Ebselen 4 μM,10 µM
same,MIC of silver in the presence of ebselen,[7]; Ebselen 0 μM,80 µM
same,MIC of silver in the presence of ebselen,[7]; Ebselen 1 μM,80 µM
same,MIC of silver in the presence of ebselen,[7]; Ebselen 2 μM,40 µM
same,MIC of silver in the presence of ebselen,[7]; Ebselen 4 μM,10 µM
same,MIC of silver in the presence of ebselen,[8]; Ebselen 0 μM,40 µM
same,MIC of silver in the presence of ebselen,[8]; Ebselen 1 μM,20 µM
same,MIC of silver in the presence of ebselen,[8]; Ebselen 2 μM,10 µM
same,MIC of silver in the presence of ebselen,[8]; Ebselen 4 μM,5 µM
same,MIC of silver in the presence of ebselen,[9]; Ebselen 0 μM,80 µM
same,MIC of silver in the presence of ebselen,[9]; Ebselen 1 μM,40 µM
same,MIC of silver in the presence of ebselen,[9]; Ebselen 2 μM,20 µM
same,MIC of silver in the presence of ebselen,[9]; Ebselen 4 μM,20 µM
same,MIC of silver in the presence of ebselen,[10]; Ebselen 0 μM,40 µM
same,MIC of silver in the presence of ebselen,[10]; Ebselen 1 μM,20 µM
same,MIC of silver in the presence of ebselen,[10]; Ebselen 2 μM,10 µM
same,MIC of silver in the presence of ebselen,[10]; Ebselen 4 μM,5 µM
same,MIC of silver in the presence of ebselen,[11]; Ebselen 0 μM,80 µM
same,MIC of silver in the presence of ebselen,[11]; Ebselen 1 μM,80 µM
same,MIC of silver in the presence of ebselen,[11]; Ebselen 2 μM,40 µM
same,MIC of silver in the presence of ebselen,[11]; Ebselen 4 μM,10 µM
same,tryptophan fluorescence intensity of 10 μM Trx1,[12]; 1-10 μM Ag^+,increased the tryptophan fluorescence intensity
same,fluorescent intensity of 10 μM Trx1,[12]; 20-100 μM Ag^+,decreased
